Where two headings read alike, the source gives them in different places.

Data on 11 molecules can be found in patent US20090264345A1, “MACROCYCLIC PEPTIDES AND METHODS FOR MAKING AND USING THEM” (priority 2006, published 2009).

For series [1] the following is noted: amide bond, 15-membered ring, DEPBT/HATU/TBTU/DIEA, THF/MeCN/CH2Cl2 2:2:1, 7.0 mM, 2 steps.
Another series relates to MSS colon cancers. Particulars: drug of choice for MSS colon cancers; cited from earlier work.
For series [2], the system named is virus-encoded topoisomerase I. The settings on record: poxvirus MCV; Hwang et al. 1999; cited from earlier work.

In series [1] (from H-Leu-Leu-Val-dMeLeu-Phe-OH?), `CC(C)C[C@@H]1NC(=O)[C@H](Cc2ccccc2)NC(=O)[C@@H](CC(C)C)N(C)C(=O)[C@H](C(C)C)NC(=O)[C@H](CC(C)C)NC1=O` [cyclo[-Phe-Xaa-Val-Leu-Leu-] (Xaa-2 DNMeLeu)] returned a ring closure, isolated yield of 81%. In series [1] (from H-Leu-Leu-Val-Leu-Phe-OH?), `CC(C)C[C@@H]1NC(=O)[C@H](Cc2ccccc2)NC(=O)[C@H](CC(C)C)NC(=O)[C@H](C(C)C)NC(=O)[C@H](CC(C)C)NC1=O` [cyclo[-Phe-Leu-Val-Leu-Leu-]] came in with a ring closure, isolated yield of 65%.

In general, IC50 refers to the midpoint of a concentration-inhibition curve. As to `O=c1[nH]cc(F)c(=O)[nH]1` [5-fluorouracil], the IC50 with MSS colon cancers is 5 µM. Take `CC(C)C[C@@H]1NC(=O)[C@H](CC(C)C)NC(=O)[C@@H](Cc2ccccc2)NC(=O)[C@H](CC(C)C)NC(=O)[C@H](C(C)C)NC1=O` [cyclo[-Xaa-Leu-Val-Leu-Leu-] (Xaa-1 DPhe)]: in series [1] (from H-Leu-Leu-Val-Leu-dPhe-OH?), the ring closure, isolated yield amounted to 39%. `CC(C)C[C@@H]1NC(=O)[C@H](CC(C)C)NC(=O)[C@@H](Cc2ccccc2)NC(=O)[C@@H](CC(C)C)NC(=O)[C@H](C(C)C)NC1=O` [cyclo[-Xaa-Xaa-Val-Leu-Leu-] (Xaa-1 DPhe, Xaa-2 DLeu)] returned a ring closure, isolated yield in series [1] (from H-Leu-Leu-Val-dLeu-dPhe-OH?) of 37%. In series [1] (from H-dLeu-MeLeu-Val-Leu-Phe-OH?), `CC(C)C[C@@H]1NC(=O)[C@H](C(C)C)NC(=O)[C@H](CC(C)C)N(C)C(=O)[C@@H](CC(C)C)NC(=O)[C@H](Cc2ccccc2)NC1=O` [cyclo[-Phe-Leu-Val-Xaa-Xaa-] (Xaa-4 NMeLeu, Xaa-5 DLeu)] returned a ring closure, isolated yield of 40%. Turning to `CC(C)C[C@@H]1NC(=O)[C@H](Cc2ccccc2)NC(=O)[C@H](CC(C)C)NC(=O)[C@@H](C(C)C)NC(=O)[C@H](CC(C)C)NC1=O` [cyclo[-Phe-Leu-Xaa-Leu-Leu-] (Xaa-3 DVal)], the ring closure, isolated yield in series [1] (from H-Leu-Leu-dVal-Leu-Phe-OH?) turned out to be 65%. Sansalvamide A [San A]: the “inhibition of topoisomerase I” value in series [2] is on record as “inhibitor”. The molecule `CC(C)C[C@@H]1NC(=O)[C@H](Cc2ccccc2)NC(=O)[C@@H](CC(C)C)NC(=O)[C@H](C(C)C)NC(=O)[C@H](CC(C)C)NC1=O` [cyclo[-Phe-Xaa-Val-Leu-Leu-] (Xaa-2 DLeu)] gave a ring closure, isolated yield in series [1] (from H-Leu-Leu-Val-dLeu-Phe-OH?) of 85%. `CC(C)C[C@@H]1NC(=O)[C@H](C(C)C)NC(=O)[C@@H](CC(C)C)NC(=O)[C@@H](CC(C)C)NC(=O)[C@H](Cc2ccccc2)NC1=O` [cyclo[-Phe-Leu-Val-Xaa-Xaa-] (Xaa-4 DLeu, Xaa-5 DLeu)] came in with a ring closure, isolated yield in series [1] (from H-dLeu-dLeu-Val-Leu-Phe-OH?) of 35%. In the case of `CC(C)C[C@@H]1NC(=O)[C@H](Cc2ccccc2)NC(=O)[C@H](CC(C)C)NC(=O)[C@H](C(C)C)NC(=O)[C@@H](CC(C)C)NC1=O` [cyclo[-Phe-Leu-Val-Xaa-Leu-] (Xaa-4 DLeu)], in series [1] (from H-Leu-dLeu-Val-Leu-Phe-OH?), the ring closure, isolated yield was 53%.
